Laboratory results published in patent US10106556B2, “Heterocyclic compound” (TAKEDA PHARMACEUTICAL COMPANY LIMITED, priority 2015, dated 2018).

molecular target: T1, His-hMAGL (recombinant polyhistidine tagged human MAGL protein) (Homo sapiens, UniProt Q99685); assay: Measurement of MAGL inhibitory activity (arachidonic acid production from 2-arachidonylglycerol, RapidFire-mass spectrometry); assay type: biochemical; details: MAGL inhibitory rate at 10 μM test compound; 60 min preincubation with His-hMAGL, 2-arachidonylglycerol substrate, 10 min reaction at room temperature
T1 construct: made in house; host or cells: E. coli BL21(DE3)
T1 sequence (Q99685 1-303): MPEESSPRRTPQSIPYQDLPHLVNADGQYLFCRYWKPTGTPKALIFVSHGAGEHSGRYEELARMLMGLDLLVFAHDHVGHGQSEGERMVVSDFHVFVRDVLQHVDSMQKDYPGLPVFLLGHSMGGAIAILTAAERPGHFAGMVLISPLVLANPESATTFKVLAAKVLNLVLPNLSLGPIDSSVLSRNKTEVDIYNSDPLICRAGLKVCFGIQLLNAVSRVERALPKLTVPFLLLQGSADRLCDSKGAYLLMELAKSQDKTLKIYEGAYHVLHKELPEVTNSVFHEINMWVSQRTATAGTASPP
Procedure: Furthermore, acetonitrile (50 μL) containing 3 μM arachidonic acid-d8 (Cayman Chemical Company) was added and the mixture was stirred.
The amount of arachidonic acid in the obtained enzyme reaction mixture was calculated by measuring by RapidFire-mass spectrometry and correcting by the amount of arachidonic acid-d8. High Throughput online solid phase extraction was performed using RapidFire 300™ system (Agilent Technologies, Inc.). Samples were loaded on SPE C4 cartridge (Agilent Technologies, Inc.) and desalted with 0.2 (v/v) % acetic acid (Wako Pure Chemical Industries, Ltd.) in ultrapure water/acetonitrile (70/30, v/v) at a flow rate of 1.5 mL/min, eluted at a flow rate of 0.5 mL/min with 0.2 (v/v) % acetic acid dissolved in acetonitrile/ultrapure water (90/10, v/v), and injected into the mass spectrometry part. The injection needle was washed with ultrapure water (500 millisecond) and acetonitrile (500 millisecond) to minimize carry-over. […] The RapidFire300 system was controlled by RapidFire UI software version 3.6 (Agilent Technologies, Inc.).
The mass spectrometry of the resultant product was performed using API4000™ triple quadrupole mass spectrometer (AB SCIEX) equipped with an electrospray ion sauce (TurboIon Spray™) in a negative selected reaction monitoring (SRM) mode. The conditions of SRM are shown below. The parameters of the instrument were optimized as follows: capillary temperature 600° C., ion spray voltage −4.5 kV, collision gas 8, curtain gas 15 psi, ion source gas 1 60 psi, ion source gas 2 60 psi. The mass spectrometer was controlled by Analyst™ software version 1.5.1 (AB SCIEX). The peak area integration was analyzed using RapidFire integrator software version 3.6 (Agilent Technologies, Inc.).
MAGL inhibitory rate (%) was calculated according to the following calculation formula. (1−(arachidonic acid production amount of test compound addition group−arachidonic acid production amount of enzyme−free group)÷(arachidonic acid production amount of test compound-free group−arachidonic acid production amount of enzyme-free group))×100

Compound	inhibition at 10 µM [%]
O=C1COc2ccc(C(=O)N3CCC(COc4cc(Cl)cc(Cl)c4)CC3)cc2N1 [Example 45, 6-((4-((3,5-dichlorophenoxy)methyl)piperidin-1-yl)carbonyl)-2H-1,4-benzoxazin-3(4H)-one]	98
O=C1COc2ccc(C(=O)N3CCC(COc4ccnc(Cl)c4Cl)CC3)cc2N1 [Example 46, 6-((4-(((2,3-dichloropyridin-4-yl)oxy)methyl)piperidin-1-yl)carbonyl)-2H-1,4-benzoxazin-3(4H)-one]	98
O=C1COc2ccc(C(=O)N3CCC(COc4cc(Cl)ncc4Cl)CC3)cc2N1 [Example 47, 6-((4-(((2,5-dichloropyridin-4-yl)oxy)methyl)piperidin-1-yl)carbonyl)-2H-1,4-benzoxazin-3(4H)-one]	98
N#Cc1cccc(OCC2CCN(C(=O)c3ccc4c(c3)NC(=O)CO4)CC2)c1 [Example 48, 3-((1-((3-oxo-3,4-dihydro-2H-1,4-benzoxazin-6-yl)carbonyl)piperidin-4-yl)methoxy)benzonitrile]	89
N#Cc1ccc(OCC2CCN(C(=O)c3ccc4c(c3)NC(=O)CO4)CC2)cc1 [Example 49, 4-((1-((3-oxo-3,4-dihydro-2H-1,4-benzoxazin-6-yl)carbonyl)piperidin-4-yl)methoxy)benzonitrile]	92
N#Cc1ccc(OCC2CCN(C(=O)c3ccc4c(c3)NC(=O)CO4)CC2)c(Cl)c1 [Example 52, 3-chloro-4-((1-((3-oxo-3,4-dihydro-2H-1,4-benzoxazin-6-yl)carbonyl)piperidin-4-yl)methoxy)benzonitrile]	102
O=C1COc2ccc(C(=O)N3CCC(COc4ccccc4OC(F)(F)F)CC3)cc2N1 [Example 53, 6-((4-((2-(trifluoromethoxy)phenoxy)methyl)piperidin-1-yl)carbonyl)-2H-1,4-benzoxazin-3(4H)-one]	96
O=C1COc2ccc(C(=O)N3CCC(COc4cccc(OC(F)(F)F)c4)CC3)cc2N1 [Example 54, 6-((4-((3-(trifluoromethoxy)phenoxy)methyl)piperidin-1-yl)carbonyl)-2H-1,4-benzoxazin-3(4H)-one]	98
O=C1COc2ccc(C(=O)N3CCC(COc4ccc(OC(F)(F)F)cc4)CC3)cc2N1 [Example 55, 6-((4-((4-(trifluoromethoxy)phenoxy)methyl)piperidin-1-yl)carbonyl)-2H-1,4-benzoxazin-3(4H)-one]	96
O=C1COc2ccc(C(=O)N3CCC(COc4cccc(F)c4Cl)CC3)cc2N1 [Example 56, 6-((4-((2-chloro-3-fluorophenoxy)methyl)piperidin-1-yl)carbonyl)-2H-1,4-benzoxazin-3(4H)-one]	101
O=C1COc2ccc(C(=O)N3CCC(COc4cccc(C(F)(F)F)c4)CC3)cc2N1 [Example 57, 6-((4-((3-(trifluoromethyl)phenoxy)methyl)piperidin-1-yl)carbonyl)-2H-1,4-benzoxazin-3(4H)-one]	99
O=C1COc2ccc(C(=O)N3CCC(COc4ccc(C(F)(F)F)cc4)CC3)cc2N1 [Example 58, 6-((4-((4-(trifluoromethyl)phenoxy)methyl)piperidin-1-yl)carbonyl)-2H-1,4-benzoxazin-3(4H)-one]	100
O=C1COc2ccc(C(=O)N3CCC(COc4cccc5ccccc45)CC3)cc2N1 [Example 59, 6-((4-((1-naphthyloxy)methyl)piperidin-1-yl)carbonyl)-2H-1,4-benzoxazin-3(4H)-one]	102
O=C1COc2ccc(C(=O)N3CCC(COc4ccc5ccccc5c4)CC3)cc2N1 [Example 60, 6-((4-((2-naphthyloxy)methyl)piperidin-1-yl)carbonyl)-2H-1,4-benzoxazin-3(4H)-one]	92
O=C1COc2ccc(C(=O)N3CCC(COc4ccc5[nH]ncc5c4)CC3)cc2N1 [Example 61, 6-((4-((1H-indazol-5-yloxy)methyl)piperidin-1-yl)carbonyl)-2H-1,4-benzoxazin-3(4H)-one]	94
O=C1COc2ccc(C(=O)N3CCC(COc4nc5ccccc5s4)CC3)cc2N1 [Example 62, 6-((4-((1,3-benzothiazol-2-yloxy)methyl)piperidin-1-yl)carbonyl)-2H-1,4-benzoxazin-3(4H)-one]	86
CC(=O)n1ncc2c(OCC3CCN(C(=O)c4ccc5c(c4)NC(=O)CO5)CC3)cccc21 [Example 63, 6-((4-(((1-acetyl-1H-indazol-4-yl)oxy)methyl)piperidin-1-yl)carbonyl)-2H-1,4-benzoxazin-3(4H)-one]	93
O=C1COc2ccc(C(=O)N3CCC(COc4cccc5[nH]ncc45)CC3)cc2N1 [Example 64, 6-((4-((1H-indazol-4-yloxy)methyl)piperidin-1-yl)carbonyl)-2H-1,4-benzoxazin-3(4H)-one]	101
O=C1COc2ccc(C(=O)N3CCC(COc4ccccc4C4CC4)CC3)cc2N1 [Example 65, 6-((4-((2-cyclopropylphenoxy)methyl)piperidin-1-yl)carbonyl)-2H-1,4-benzoxazin-3(4H)-one]	96
O=C1COc2cc(F)c(C(=O)N3CCC(COc4ccc(F)cc4Cl)CC3)cc2N1 [Example 66, 6-((4-((2-chloro-4-fluorophenoxy)methyl)piperidin-1-yl)carbonyl)-7-fluoro-2H-1,4-benzoxazin-3(4H)-one]	104
N#Cc1cc(C(F)(F)F)ccc1OCC1CCN(C(=O)c2ccc3c(c2)NC(=O)CO3)CC1 [Example 67]	101
N#Cc1cc(C(F)(F)F)ccc1OCC1CCN(C(=O)c2cc3c(cc2F)OCC(=O)N3)CC1 [Example 68, 2-((1-((7-fluoro-3-oxo-3,4-dihydro-2H-1,4-benzoxazin-6-yl)carbonyl)piperidin-4-yl)methoxy)-5-(trifluoromethyl)benzonitrile]	96
N#Cc1cc(C(F)(F)F)ccc1OCC1CCN(C(=O)c2ccc3c(c2)NC(=O)C3)CC1 [Example 69, 2-((1-((2-oxo-2,3-dihydro-1H-indol-6-yl)carbonyl)piperidin-4-yl)methoxy)-5-(trifluoromethyl)benzonitrile]	99
N#Cc1ccc(OCC2CCN(C(=O)c3cc4c(cc3F)OCC(=O)N4)CC2)c(Cl)c1 [Example 70, 3-chloro-4-((1-((7-fluoro-3-oxo-3,4-dihydro-2H-1,4-benzoxazin-6-yl)carbonyl)piperidin-4-yl)methoxy)benzonitrile]	100
O=C1COc2cc(F)c(C(=O)N3CCC(COc4ccc(Cl)nc4Cl)CC3)cc2N1 [Example 71, 6-((4-(((2,6-dichloropyridin-3-yl)oxy)methyl)piperidin-1-yl)carbonyl)-7-fluoro-2H-1,4-benzoxazin-3(4H)-one]	100
N#Cc1cc(Cl)ccc1OCC1CCN(C(=O)c2cc3c(cc2F)OCC(=O)N3)CC1 [Example 72, 5-chloro-2-((1-((7-fluoro-3-oxo-3,4-dihydro-2H-1,4-benzoxazin-6-yl)carbonyl)piperidin-4-yl)methoxy)benzonitrile]	100
O=C1COc2cc(F)c(C(=O)N3CCC(O)(COc4ccc(F)cc4Cl)CC3)cc2N1 [Example 73, 6-((4-((2-chloro-4-fluorophenoxy)methyl)-4-hydroxypiperidin-1-yl)carbonyl)-7-fluoro-2H-1,4-benzoxazin-3(4H)-one]	102
O=C1COc2cc(F)c(C(=O)N3CCC(O)(COc4ccc(Cl)cc4Cl)CC3)cc2N1 [Example 74, 6-((4-((2,4-dichlorophenoxy)methyl)-4-hydroxypiperidin-1-yl)carbonyl)-7-fluoro-2H-1,4-benzoxazin-3(4H)-one]	102
N#Cc1cccc(OCC2CCN(C(=O)c3cc4c(cc3F)OCC(=O)N4)CC2)c1Cl [Example 75, 2-chloro-3-((1-((7-fluoro-3-oxo-3,4-dihydro-2H-1,4-benzoxazin-6-yl)carbonyl)piperidin-4-yl)methoxy)benzonitrile]	102
O=C1COc2cc(F)c(C(=O)N3CC(COc4ccc(Cl)cc4Cl)C3)cc2N1 [Example 76, 6-((3-((2,4-dichlorophenoxy)methyl)azetidin-1-yl)carbonyl)-7-fluoro-2H-1,4-benzoxazin-3(4H)-one]	105
